# Measurements: patent publication US5612217A, “Streptomyces sp. MA 7074 (ATCC 55605) used for microbial synthesis of HIV protease inhibitors” (Merck & Co., Inc., priority 1994, dated 1997)
# Target: T1, HIV protease (Human immunodeficiency virus type 1 group M subtype B, UniProt P03366)
# T1 construct: the protease expressed in Eschericia coli; made in house; host or cells: Escherichia coli
# Experiment: Assay for inhibition of microbial expressed HIV protease (in vitro, peptide substrate cleavage, HPLC)
# Type: biochemical
# Conditions: for % Potency Relative to Compound J, Based On Nominal Wt. / % Potency Relative to Compound J, Based on HPLC: IC50 of Compound J / IC50 of test compound x 100; for % Potency Relative to Compound J, Based On Nominal Wt.: dilution based on nominal weight; for % Potency Relative to Compound J, Based on HPLC: concentration checked by HPLC using J as standard
# Description: Inhibition studies of the reaction of the protease expressed in Eschericia coli with a peptide substrate [Val-Ser-Gln-Asn-(betanapthyl)Ala-Pro-Ile-Val, 0.5 mg/mL at the time the reaction is initiated] were in 50 mM Na acetate, pH 5.5, at 30° C. for 1 hour. Various concentrations of inhibitor in 1.0 μl DMSO were added to 25 μl of the peptide solution in water. The reaction is initiated by the addition of 15 μl of 0.33 nM protease (0.11 ng) in a solution of 0.133M Na acetate pH 5.5 and 0.1% bovine serum albumin. The reaction was quenched with 160 μl of 5% phosphoric acid. Products of the reaction were separated by HPLC (VYDAC wide pore 5 cm C-18 reverse phase, acetonitrile gradient, 0.1% phosphoric acid). The extent of inhibition of the reaction was determined as IC50 from the peak heights of the products.
# Seven Compound J bioconversion products were assayed for in vitro HIV protease inhibitory by the assay for inhibition of microbial expressed HIV Protease, protocol given above. Two of the bioconversion products were isolated from MA7074 incubations, Compounds B1 and F. The IC50 of the parent Compound J was divided by the IC50 of each test compound and multiplied by 100 in order to calculate the percent potency of each compound relative to J.
# In some cases, the dilution of the test compound was based on nominal weight. In other cases, especially when the weight was less than 250 μg, the concentration was checked by HPLC using J as standard.
compound,measurement,setting,value
CC(C)(C)NC(=O)[C@@H]1CN(Cc2cccnc2)CCN1C[C@@H](O)C[C@@H](Cc1ccccc1)C(=O)N[C@H]1c2ccccc2[C@H](O)[C@H]1O [A],"% Potency Relative to Compound J, Based On Nominal Wt.",,27%
CC(C)(C)NC(=O)[C@@H]1CN(Cc2cccnc2)CCN1C[C@@H](O)C[C@@H](Cc1ccc(O)cc1)C(=O)N[C@H]1c2ccccc2C[C@H]1O [D],"% Potency Relative to Compound J, Based on HPLC",,31%
same,"% Potency Relative to Compound J, Based On Nominal Wt.",,3.1%
CC(C)(C)NC(=O)[C@@H]1CN(Cc2cccnc2)CCN1C[C@@H](O)C[C@@H](Cc1ccccc1)C(=O)N[C@H]1c2ccccc2[C@@H](O)[C@H]1O [Compound B1],"% Potency Relative to Compound J, Based on HPLC",,115%
CC(C)(C)NC(=O)[C@@H]1CN(Cc2cccnc2)CCN1C[C@@H](O)C[C@@H](Cc1ccccc1)C(=O)N[C@H]1c2ccccc2C(=O)[C@H]1O [Compound F],"% Potency Relative to Compound J, Based On Nominal Wt.",,16%
same,HIV-protease activity (in words),"qualitative statement, compared with Compound J where stated",less HIV-protease activity than Compound J
CC(C)(C)NC(=O)[C@@H]1CN(Cc2ccc[n+]([O-])c2)CCN1C[C@@H](O)C[C@@H](Cc1ccccc1)C(=O)N[C@H]1c2ccccc2C[C@H]1O [E],"% Potency Relative to Compound J, Based On Nominal Wt.",,34%
